Experimental data: patent US20110166066A1, “CATESTATIN (CST) AND ITS VARIANTS FOR TREATMENT OF CARDIOVASCULAR AND METABOLIC DISORDERS” (priority 2008, published 2011)
Read-outs that look alike come from different tables or passages of the source. No end group written: not given here.

What was measured:
GSK-3β Ser9 = assay: Immunoblot of phosphorylated GSK-3β in WT-CST perfused hearts; parameters: species or system rat; details: 110 nM
Experimental: Cardiac signaling—Hearts were perfused with or without 110 nM WT-Cts as before. At the end of experiment hearts were snap frozen under liquid nitrogen and homogenized with 1 ml of ice cold 0.2 M sucrose, Tris maleate (pH 7.0) buffer supplemented with 2 mM EDTA, pH 8.0, 1 mM sodium orthovanadate, 10 mM sodium pyrophosphate, 1 mM phenylmethylsulfonyl fluoride, 10 μg/ml leupeptin, 10 μg/ml aprotinin and 0.1 mM 3-isobutyl-1-methylxanthine. SR membrane fractions were isolated from cytosolic proteins as described before (27). Protein content was determined by Bradford assay (BIO-RAD) and 100 μg of cytosolic protein was subjected to SDS-PAGE immunoblot analysis for phosphorylated-ERK, total ERK (P-ERK and T-ERK; Santa Cruz, Calif.). […]
Statistics—Data are expressed as the mean±SEM. Curve fitting was accomplished in the program Kaleidagraph (Synergy Software, Reading, Pa.). […] For analysis of phosphorylated proteins, levels were quantified using Bio-Rad QuantifyOne and volumes of phosphorylated proteins were divided by the levels of non-phosphorylated proteins to calculate fold activation. Stimulation of protein activity was expressed as fold increase over vehicle-treated control. The means and S.E.M. were calculated for each treatment. […]

[1] = system: Langendorff perfused rat heart; assay: Langendorff perfused rat heart, basal conditions: concentration-response of catestatin peptides
Source text: Animals-Male Wistar rats (Morini, Bologna, Italy S.P.A.) weighing 180-250 g were housed (three per cage) in a ventilated cage rack system under standard conditions. Animals had food and water access ad libitum. The investigation conforms to the Guide for the Care and Use of Laboratory Animals, according to NIH Publication No. 85-23, revised 1996. Isolated heart preparation-Rats were anesthetized with ethyl carbamate (2 g/Kg rat, i.p.), the hearts rapidly excised and then transferred in ice-cold buffered Krebs-Henseleit solution (KHs). As previously described (23), the aorta was immediately cannulated with a glass cannula and connected to Langendorff apparatus to start perfusion at constant flow-rate (12 ml/min). Briefly, the apex of the left ventricle (LV) was pierced to avoid fluid accumulation. A water-filled latex balloon, connected to a pressure transducer ([…], Inc. USA), was inserted through mitral valve into the LV allowing isovolumic contractions and continuous mechanical parameters recording. Another pressure transducer located just above the aorta recorded coronary pressure (CP). […] Hemodynamic parameters were assessed using a PowerLab data acquisition system and analysed using Chart software (both purchased by ADInstruments, Basile, Italy). […] Curve fitting was accomplished in the program Kaleidagraph (Synergy Software, Reading, Pa.). Peptide EC50 and IC50 values were interpolated as the concentration that achieved 50% stimulation and inhibition, respectively. For analysis of phosphorylated proteins, levels were quantified using Bio-Rad QuantifyOne and volumes of phosphorylated proteins were divided by the levels of non-phosphorylated proteins to calculate fold activation. Stimulation of protein activity was expressed as fold increase over vehicle-treated control. The means and S.E.M. were calculated for each treatment. Multiple comparisons were made using either one-way ANOVA followed by Bonferroni's post-hoc test or two-way ANOVA. Statistical significance was concluded at p<0.05. Statistics were computed with the program InStat (GraphPad Software, Inc., San Diego, Calif.).

[2] = system: Langendorff perfused rat heart; assay: ET-1 stimulated Langendorff heart preparations
Experimental: ET-1 stimulated preparations—Hearts, stabilized for 20 min with KHs, were perfused for 10 min with ET-1 (1 nM) and then washed-out with KHs. After returning to control conditions, each heart was perfused with KHs containing a single concentration of either WT-Cts (33 nM), P370L-Cts (110 nM) or G364S-Cts (200 nM) plus 1 nM ET-1 for a further 10 min.

SSMKLSFRARAYGFRGPGPQL [WT-CST, catestatin]
Phosphorylation of GSK-3β at Ser9 (GSK-3β Ser9): inhibited
EC50 [1]: ~12.5 nM
Time the LVP effect remained stable [1]: 15 min
Time to maximum effect on LVP after administration [1]: 5 min
IC50 ([1]; 11 to 200 nM, measured at 10 min, read-out: +(LVdP/dt)max inhibition IC50): ~72 nM
EC50 ([1]; 11 to 200 nM, measured at 10 min, read-out: T/−t increment EC50): 60 nM
IC50 ([1]; 11 to 200 nM, measured at 10 min, read-out: −(LVdP/dt)max decrement IC50): 74 nM
Concentration of maximum CP response ([1]; basal): 200 nM
Concentration of maximum HR increase ([1]; basal): 165 nM
Effect on CP (coronary pressure) ([1]; basal): dose-dependent increment
Activity rank order ([1]; basal conditions, Table 2): Activity: WT-CST > P370L-CST > G364S-CST
Inotropism ([1]; basal conditions, Table 2): Negative
Lusitropism ([1]; basal conditions, Table 2): Negative
Effect on HR ([1]; basal, WT-Cts significant at 33 nM): significantly increased
Desensitization on repetitive exposure ([1]; single concentration 33 nM, repeated): absence of desensitization
ET-1 induced positive inotropism ([2]; ET-1 1 nM, WT-CST 33 nM, P370L-CST 110 nM, G364S-CST 200 nM): blocked
Effect on LVP and +(LVdP/dT)max ([2]; higher doses (10 nM)): decreased
